Results: patent US4824855A, “1,4-dihydropyridine derivatives” (Sanwa Kagaku Kenkyusho Co., Ltd., priority 1985, dated 1989)
Entries after “also recorded” stand apart in the source; their conditions may differ. Where two headings read alike, the source gives them in different places.

Tests used:
[1] = system: left atrium; experiment: Negative inotropic effect on electrically driven left atrium; format: cell-based, New Zealand white rabbit; settings: Oryctolagus cuniculus; for inhibition at 100 µM: Concentration of the compound 10^-4 mol; for inhibition at 10 µM: Concentration of the compound 10^-5 mol; for IC50: read-out: ID50 (× 10^-4)
Experimental: New Zealand white rabbit was killed by bleeding from the carotid artery and the left atrium was quickly removed. […] The response of preparations was recorded isometically on a recorder. The initial tension applied to the preparation was adjusted to 1 g.

[2] = system: diastolic blood pressure; experiment: Effect of compounds on diastolic blood pressure in anesthetized dogs; format: in vivo, mongrel dogs; settings: 1 μg/kg, i.v.
Experimental: (§1) An experiment was carried out by anesthetizing adult male and female mongrel dogs (weight; 10-20 kg) with Nembutal (30 mg/kg i.p.) and artificially respiring (20 ml/kg/stroke, 20 strokes/min) the animals.
(§2) Right vertebral and femoral arteries were exposed and each probe of electro-magnetic flow meter was fitted therein to measure vertebral and femoral arterial blood flow. A cannula was inserted into descending aorta from left femoral artery in order to measure blood pressure by pressure transducer connected to amplifier. Each of test compounds dissolved in 50% ethanol solution (1 μg/kg, i.v.) was administered from the cannula into cephlic vein.

[3] = system: spiral strip of New Zealand white rabbit aorta; experiment: Ca antagonistic effect (Magnus method, Ca-induced contraction after K depolarization); format: cell-based
Experimental: Ca antagonistic effect was examined on a spiral strip of New Zealand white rabbit aorta with the Magnus method. The response of preparations was recorded isometically on a recorder. […] The data given in following Table 1 are presented as inhibitory % to concentration without the compound.

[4] = system: femoral arterial blood flow; experiment: Effect of compounds on femoral arterial blood flow in anesthetized dogs; format: in vivo, mongrel dogs; settings: 1 μg/kg, i.v.
Experimental: as §1, §2

[5] = system: vertebral arterial blood flow; experiment: Effect of compounds on vertebral arterial blood flow in anesthetized dogs; format: in vivo, mongrel dogs; settings: 1 μg/kg, i.v.
Experimental: as §1, §2

[6] = Acute toxicity (oral, Litchfield-Wilcoxon method); settings: mouse, in vivo, dd mice, observation for 72 hours
Experimental: Male and female dd mice were used (weight: 18-20 g). Each of compounds to be tested was dissolved in 1% Nikkol and administered directly into stomach by forced oral administration and with use of a metal sonde. LD50 of the compounds were calculated by Litchfield-Wilcoxon method, after observation for 72 hours.

[7] = related arts; cited from earlier work
[8] = system: spontaneously hypertensive male rats; experiment: Blood pressure depressing action (systolic pressure); format: in vivo; settings: 3.0 mg/kg oral
From the text: The testing or control compound was orally administered to the indicated number (N) of spontaneously hypertensive male rats (15 or more weeks old).

[9] = system: vertebral arterial blood flow; experiment: Vertebral and femoral arterial blood flow increasing action (ED50); format: in vivo; settings: Canis lupus familiaris, iv; amount required to increase the vertebral arterial blood flow by 50%, anesthetized dogs
Experimental: The bloodflow increasing action of the compounds was measured on anesthetized dogs, in a manner similar to that of Pharmaceutical Test Example 3, to obtain the results shown in Table 6 below:
ED50 in the Table indicates the amount of the compound required to increase the vertebral arterial blood flow by 50%.

[10] = negative inotropic effect, compound concentrations in the table in mol
[11] = compound 10^-7 mol, Concentration of Ca ion 2.5 mM
[12] = compound 10^-7 mol, Concentration of Ca ion 5.0 mM
[13] = compound 10^-8 mol, Concentration of Ca ion 2.5 mM
[14] = compound 10^-8 mol, Concentration of Ca ion 5.0 mM

| SMILES | inhibition at 100 µM ([1]; read-out: Change (%)) [%] | inhibition at 10 µM ([1]; read-out: Change (%)) [%] | IC50 [1, 10] [µM] | Change (%) DBP [2] [%] | Inhibitory (%) [3, 11] [%] | Inhibitory (%) [3, 12] [%] | Inhibitory (%) [3, 13] [%] | Inhibitory (%) [3, 14] [%] | Change (%) FABF [4] [%] | Change (%) VABF [5] [%] | LD50 at 72 h [6] [mg/kg] | effect on cerebral blood flow [7] | Systolic pressure (change from pre-value) ([8]; 1 hr) [mm Hg] | Systolic pressure (change from pre-value) ([8]; 2 hr) [mm Hg] | Systolic pressure (change from pre-value) ([8]; 4 hr) [mm Hg] | Systolic pressure (change from pre-value) ([8]; 6 hr) [mm Hg] | Systolic pressure (change from pre-value) ([8]; 24 hr) [mm Hg] | other results |
| --- | --- | --- | --- | --- | --- | --- | --- | --- | --- | --- | --- | --- | --- | --- | --- | --- | --- | --- |
| CC1=C(C(=O)OCCN(C)Cc2ccccc2)C(c2cccc([N+](=O)[O-])c2)C(C(=O)OCC2CC2)=C(C)N1 (centres unmarked) [Example 1, 3-cyclopropylmethyl 5-[2-(N-benzyl-N-methylamino)ethyl] 1,4-dihydro-2,6-dimethyl-4-(3-nitrophenyl)pyridine-3,5-dicarboxylate] | 15.7 | 7.4 | 320 | -9 ± 1 | 94.7 ± 3.72 | > 100 | 76.1 ± 6.62 | 81.3 ± 5.46 | 25 ± 8 | 51 ± 13 | 211 |  |  |  |  |  |  |  |
| CC1=C(C(=O)OCCN(C)Cc2ccc(Cl)cc2)C(c2cccc([N+](=O)[O-])c2)C(C(=O)OCC2CC2)=C(C)N1 (centres unmarked) [Example 3, 3-[2-[N-(4-chlorobenzyl)-N-methylamino]ethyl] 5-cyclopropylmethyl 1,4-dihydro-2,6-dimethyl-4-(3-nitrophenyl)pyridine-3,5-dicarboxylate] |  |  |  | -8 ± 1 |  |  |  |  | 23 ± 8 | 56 ± 12 |  |  |  |  |  |  |  |  |
| COc1ccc(CN(C)CCOC(=O)C2=C(C)NC(C)=C(C(=O)OCC3CC3)C2c2cccc([N+](=O)[O-])c2)cc1 (centres unmarked) [Example 4, 3-cyclopropylmethyl 5-[2-[N-(4-methoxybenzyl)-N-methylamino]ethyl] 1,4-dihydro-2,6-dimethyl-4-(3-nitrophenyl)pyridine-3,5-dicarboxylate] |  |  |  | -6 ± 1 |  |  |  |  | 19 ± 6 | 33 ± 5 |  |  |  |  |  |  |  |  |
| COC(=O)C1=C(C)NC(C)=C(C(=O)OCCN(C)Cc2ccccc2)C1c1cccc([N+](=O)[O-])c1 (centres unmarked) [Nicardipine, 1,4-dihydro-2,6-dimethyl-4-(3-nitrophenyl)-pyridine-3,5-dicarboxylic acid 3-2-(N-benzyl-N-methylamino)ethyl 5-methyl ester] | 25.6 | 13.5 | 34 | -10 ± 1 | 90.9 ± 12.06 | 83.2 ± 15.93 | 26.5 ± 18.40 | 16.3 ± 21.28 | 14 ± 5 | 32 ± 7 | 305 | high cerebral blood flow increasing action | -10.0 ± 2.28 | -5.7 ± 1.61 | -3.0 ± 2.01 | -1.0 ± 1.50 | -4.2 ± 1.88 | inhibition at 1 µM ([1]; Concentration of the compound 10^-6 mol, read-out: Change (%)): 3.4%; ED50 [9]: 0.0042 mg/kg |
| COC(=O)C1=C(C)NC(C)=C(C(=O)OC)C1c1ccccc1[N+](=O)[O-] [Nifedipine, dimethyl ester of 1,4-dihydro-2,6-dimethyl-4-(2-nitropheny)pyridine-3,5-dicarboxylic acid] | 19 | 9.5 |  |  | > 100 | > 100 | 63.5 ± 7.33 | 62.3 ± 7.91 |  |  |  | tendency of causing a relative decrease on cerebral blood flow | -19.3 ± 4.41 | -10.6 ± 3.14 | -4.3 ± 2.70 | -0.1 ± 1.56 | -1.1 ± 1.06 | pharmaceutical activities [7]: coronary vasodilating action, blood pressure depressing action; also recorded: powerful depressing action; IC50 [1]: 120 µM |
